Consider eight molecules from PMC5942844, “Identification and characterization of the Fasciola hepatica sodium- and chloride-dependent taurine transporter” (PLoS Neglected Tropical Diseases, 2018).

Read-outs that look alike come from different tables or passages of the source.

For data set [1], the system named is adult F. hepatica. Type of data set: cell-based. As to conditions: for time all flukes alive and motile: Hédon-Fleig medium; for survival of flukes: 4 h. As to the method: Fig 8 Survival of adult F. hepatica in bile acid-containing medium in the presence and absence of taurine. A: Adult flukes (12 flukes/condition in individual wells) were incubated at 37°C and 5% CO2 in a humidified atmosphere in Hédon Feig medium in the absence (control, closed circles) or presence of 50 μM taurine (closed circle), of 2 mM GES (GES, closed triangle) or of bile acids (closed triangle, 5 mM cholic acid, 1.5 mM deoxycholic acid and 0.5 mM chenodeoxycholic acid). The number of dead flukes was recorded at the indicated time points. B: Adult flukes were incubated at 37°C and 5% CO2 in a humidified atmosphere in Hédon Feig medium in the absence (control) or presence of bile acids (5 mM cholic acid, 1.5 mM deoxycholic acid and 0.5 mM chenodeoxycholic acid). Where indicated, the medium contained, in addition, 50 μM taurine or the combination of 50 μM taurine and 2 mM GES (GES) for 4h. The number of dead flukes was recorded at the end of the incubation period. The data are from three independent experiments with 11 to 12 flukes/condition. […] Thus, after Bonferroni correction for multiple testing (with α≤0.016), taurine afforded a statistically significant protection against bile acids.
F. hepatica was isolated from the bile ducts of cows slaughtered at Alpenrind GmbH (Salzburg, Austria). Flukes were kept in modified Hedon Fleig`s solution at 37°C and 5% CO2 in a humidified atmosphere. Before the experiment, flukes were maintained at 37°C for three days after extraction to clear them from bile acids. Living flukes (judged by observing movement after gently tapping them with metal forceps) were transferred into flasks containing either Hedon Fleig`s Solution alone or Hedon Fleig`s Solution supplemented with combinations of bile acids (5 mM cholic acid (CA), 1.5 mM deoxycholic acid (DCA) and […] chenodeoxycholic acid (CDC)), 50 μM taurine and 2 mM guanidinoethyl sulfonate (GES). Survival of flukes was determined again after four hours of treatment.

Data set [2] addresses T1, human taurine transporter (HsTauT) (Homo sapiens, UniProt P31641).
T1 sequence (P31641 1-620): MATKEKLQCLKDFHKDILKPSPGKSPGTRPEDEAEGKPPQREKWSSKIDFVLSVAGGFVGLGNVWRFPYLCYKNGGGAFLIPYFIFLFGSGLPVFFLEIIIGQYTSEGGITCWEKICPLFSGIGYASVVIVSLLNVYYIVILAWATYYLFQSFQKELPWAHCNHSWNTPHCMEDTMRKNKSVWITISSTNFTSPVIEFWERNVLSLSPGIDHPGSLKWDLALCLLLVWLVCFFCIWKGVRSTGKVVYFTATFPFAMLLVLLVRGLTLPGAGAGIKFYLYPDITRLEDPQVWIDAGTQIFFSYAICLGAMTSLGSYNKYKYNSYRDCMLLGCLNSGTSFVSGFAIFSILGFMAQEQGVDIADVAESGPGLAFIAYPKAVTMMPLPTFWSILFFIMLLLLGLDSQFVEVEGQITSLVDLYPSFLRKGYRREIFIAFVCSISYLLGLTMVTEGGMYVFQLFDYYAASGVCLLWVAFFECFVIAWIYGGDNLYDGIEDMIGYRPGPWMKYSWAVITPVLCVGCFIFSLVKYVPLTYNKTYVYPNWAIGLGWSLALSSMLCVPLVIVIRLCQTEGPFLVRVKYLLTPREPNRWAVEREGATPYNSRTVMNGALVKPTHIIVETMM
Kind of data set: [3H]taurine uptake by HEK293 cells stably expressing the human taurine transporter. The note with it: for EC50: 0.1 μM [3H]taurine; for IC50: IC50 of unlabeled taurine for [3H]taurine uptake. Here is the method: (§1) Human embryonic kidney-293 (HEK293 (ATCC CRL-1573, LGC standards Wesel, Germany)) cells, were grown in Dulbecco`s modified Eagle medium (DMEM) supplemented with 10% fetal bovine serum (FCS Nuaille, France), 100 units/ml penicillin and 100 μg/ml streptomycin at 37°C and with 5% CO2 in a humidified incubator. Cells were transfected with plasmids encoding fluorescently tagged or untagged versions of F. hepatica (FhTauT) and H. sapiens (HsTauT) taurine transporter using Jet Prime transfection reagent (Polyplus-transfection, France). To generate monoclonal cell lines stably expressing the transporters, transfected cells were subjected to and selected with the concentration of 0.2 mg/ml geneticin (G418) for 10 days. Surviving cells forming colonies were separated and analyzed for membrane localization of transporters and transport of taurine. After the selection process cells were kept at 50 μg/ml G418 to keep the selection pressure.
(§2) For saturation uptake experiments, cells were plated the day before the experiment at a density of about 50,000 cells/well onto poly (D-lysine)-coated 48-well culture plates (CytoOne, USA). On the day of the experiment, cells were washed with prewarmed Krebs-HEPES buffer twice (KHB) (120 mM NaCl, 3 mM KCl, 2 mM CaCl2, 2 mM MgCl2, 20 mM glucose, 10 mM HEPES, pH 7.3). Then, cells were incubated in KHB containing tracer amounts (0.1 μM) of [^3H]taurine, (19.1 Ci/mmol) (Perkin Elmer, USA) together with increasing concentrations of non-labeled taurine 10 min. The reaction was terminated after 10 minutes by removing the medium followed by rapid rinsing of cells with ice-cold assay buffer. Subsequently, cells were lysed with 0.5 ml of 1% sodium dodecyl sulfate (SDS) and transferred into scintillation vials for liquid scintillation counting. Non-specific uptake was determined by incubating cells in the presence of the blocker β-alanine (100 mM) before and during the experiment and subtracted from uptake values. Data were fit to a Michaelis-Menten equation.
(§3) Chloride-free KHB was prepared to examine the chloride dependence of both, FhTauT and HsTauT using acetate salts instead of chloride salts. Likewise, NaCl was replaced by choline chloride to examine the sodium requirement. Uptake experiments were performed as described above using 0.1 μM [^3H]taurine in sodium- and chloride-free modified KHB, respectively, mixed with increasing amounts of NaCl containing KHB thereby varying Na^+ and respectively Cl^- concentration from 0–120 mM. The inhibition experiments were performed in analogous manner with 0.1 μM [^3H]taurine and the logarithmically spaced concentrations of inhibitors.

Data set [3] addresses T2, F. hepatica taurine transporter (FhTauT) (Fasciola hepatica, UniProt A0A2R4LGM2).
T2 sequence (A0A2R4LGM2 1-647): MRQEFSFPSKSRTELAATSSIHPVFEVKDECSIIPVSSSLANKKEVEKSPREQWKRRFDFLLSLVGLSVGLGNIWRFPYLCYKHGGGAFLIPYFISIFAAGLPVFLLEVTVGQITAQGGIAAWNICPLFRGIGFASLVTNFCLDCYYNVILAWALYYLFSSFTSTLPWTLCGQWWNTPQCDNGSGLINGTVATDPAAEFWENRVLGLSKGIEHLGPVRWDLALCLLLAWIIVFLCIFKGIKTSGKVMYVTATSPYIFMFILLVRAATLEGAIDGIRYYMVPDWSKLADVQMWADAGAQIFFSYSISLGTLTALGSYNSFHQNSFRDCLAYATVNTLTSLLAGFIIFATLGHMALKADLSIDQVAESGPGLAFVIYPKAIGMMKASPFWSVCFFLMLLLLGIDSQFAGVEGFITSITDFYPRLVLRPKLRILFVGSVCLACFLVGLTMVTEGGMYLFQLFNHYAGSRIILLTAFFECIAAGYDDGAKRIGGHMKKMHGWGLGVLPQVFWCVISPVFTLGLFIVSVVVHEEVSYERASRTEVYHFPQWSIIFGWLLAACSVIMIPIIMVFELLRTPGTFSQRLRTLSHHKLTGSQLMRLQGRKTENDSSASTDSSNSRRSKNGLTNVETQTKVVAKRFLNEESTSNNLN
Kind of data set: cell-based. As to conditions: for EC50: 0.1 μM [3H]taurine; for IC50: IC50 of unlabeled taurine for [3H]taurine uptake; for inhibition of the transporter (taurine uptake): inhibitors of GABA uptake or GABA degradation. Here is the method:
as §1, §2, §3

Substrate in data set [4]: NCCS(=O)(=O)O
Kind of data set: cells, lysate or membranes. As to conditions: other: 10 min uptake, HEK293 cells; pH 7.3; 37.0 °C.

The mark [5] stands for this setting: HEK293, read-out: residual [3H]taurine uptake.
Setting [6] is: read-out: EC50 of Na+ for half-maximum stimulation of transport, sodium replaced with choline.
The mark [7] stands for this setting: read-out: EC50 of chloride for substrate uptake (apparent affinity), chloride replaced with acetate.
The mark [8] stands for this setting: read-out: EC50 of chloride for substrate uptake (apparent affinity), chloride replaced with acetate, listed as Cl^-.

Consider `NC(N)=NCCS(=O)(=O)O` [GES, guanidinoethyl sulfonate], for which the “time all flukes alive and motile” value in data set [1] (2 mM GES alone) is on record as “at least 6 h”. Moreover, the survival of flukes in data set [1] (bile acids plus 50 μM taurine plus 2 mM GES) came out at 44%. In data set [2] (Dixon plot, parallel lines), the “mode of inhibition of taurine uptake” value was “competitive inhibition”. Further, the “mode of inhibition of taurine uptake” value in data set [3] (Dixon plot, intersecting lines) is recorded as “non-competitive inhibitor”. Moreover, in data set [3] (setting [5]), the remaining activity at 1000 µM is roughly 75% and the remaining activity at 3000 µM was roughly 40%. For the same molecule, in data set [3] (comparison of residual uptake, Fig 6A vs 6C), the “affinity of F. hepatica transporter relative to human transporter” value is on record as “about ten-fold lower”.
Consider `[Na+]` [Na^+], for which the EC50 came out at 56.5 ± 7.1 mM in data set [2] (setting [6]) and 51.4 ± 6 mM in data set [3] (setting [6]). Also, the entries for the “Hill coefficient of sodium saturation curve” value in data set [2] (sodium replaced with choline) and in data set [3] (sodium replaced with choline) were 2.3±0.1 and 1.6±0.1, respectively.
For the molecule `Cl` [chloride], the EC50 came out at 54.8 ± 6.9 mM in data set [2] (setting [7]), 55 ± 7 mM in data set [2] (setting [8]), 13.9 ± 3.1 mM in data set [3] (setting [7]) and 14 ± 3 mM in data set [3] (setting [8]).
Regarding `NCCS(=O)(=O)O` [taurine, 2-aminoethanesulfonic acid], in data set [1] (50 μM taurine alone), the “time all flukes alive and motile” value is reported as “at least 6 h”. In data set [1] (bile acids plus 50 μM taurine), the survival of flukes entry is on record as “about 80%”. The IC50 was determined as 0.0412 ± 0.0082 mM in data set [2] (absence of GES); 0.0521 ± 0.0095 mM in data set [2] (presence of 0.1 mM GES); 0.0989 ± 0.0201 mM in data set [2] (presence of 0.3 mM GES); 0.0117 ± 0.0041 mM in data set [3] (absence of GES); 0.0187 ± 0.0067 mM in data set [3] (presence of 1 mM GES); 0.016 ± 0.0042 mM in data set [3] (presence of 3 mM GES). In addition, the “maximum velocity of uptake” value was 971.0 ± 60.3 pmol*10^−6 cells*min^-1 in data set [2] ([3H]taurine, HEK293 cells) and 178 ± 2 pmol*10^−6 cells*min^-1 in data set [3] ([3H]taurine, HEK293 cells). In data set [3] (transfected vs untransfected HEK293 cells), the “[3H]taurine accumulation relative to untransfected control cells” value is recorded as “about 10 fold”.
In the case of `Cc1ccsc1C(=CCCN1CCC[C@@H](C(=O)O)C1)c1sccc1C` [tiagabine], the “inhibition of the transporter (taurine uptake)” value in data set [3] is given as “failed to inhibit”.
Take `C=CC(N)CCC(=O)O` (stereo not drawn) [vigabatrin]: the “inhibition of the transporter (taurine uptake)” value in data set [3] was “failed to inhibit”.

B1: human taurine transporter (HsTauT) (Homo sapiens) (protein)
chain: T1 sequence (P31641 1-620)
As to B1, the Km in data set [4] is 41.0 ± 10.4 µM.

B2: F. hepatica taurine transporter (FhTauT) (Fasciola hepatica) (protein)
chain: T2 sequence (A0A2R4LGM2 1-647)
As for B2, the Km in data set [4] was 12.0 ± 0.5 µM.

One may read the EC50 as the concentration needed to bring the measured effect to its halfway point. Usually IC50 stands for the concentration that inhibits the measured activity by half. As a reminder, the Km is the substrate concentration at which the rate is half of its maximum.
